{"source": "patent US6500856B2", "about": "“Cyclic AMP-specific phosphodiesterase inhibitors” (Icos Corporation, priority 1999, dated 2002)", "key": {"[1]": {"system": "human peripheral blood lymphocytes (PBL)", "test": "Lipopolysaccharide-stimulated TNFα release from human peripheral blood lymphocytes", "format": "cell-based", "settings": "LPS-stimulated TNFα release from human PBL", "method": "The compounds of structural formula (II) also were tested for an ability to reduce TNFα secretion in human peripheral blood lymphocytes. The ability to reduce TNFα secretion is related to the EC50 values (i.e., the effective concentration of the compound capable of inhibiting 50% of the total TNFα).\nTo assess the ability of a compound to reduce TNFα secretion in human peripheral blood lymphocytes (PBL), the following tests were performed.\nHeparinized blood (approximately 30 mL) drawn from human volunteers was mixed 1:1 with Dulbecco's modified phosphate-buffered saline. This mixture was mixed 1:1 with HISTOPAQUE® and centrifuged at 1,500 rpm at room temperature without braking in the swinging bucket of a Beckman model TJ6 centrifuge. Erythrocytes were centrifuged to the bottom of the tubes, and serum remained at the surface of the tubes. A layer containing lymphocytes sedimented between the serum and HISTOPAQUE® layers, and was removed by aspiration to a fresh tube. The cells were quantified and adjusted to 3×10^6 cells/mL and a 100 μL aliquot is placed into the wells of a 96 well plate. Test compounds and RPMI media (Gibco/BRL Life Sciences) are added to each of the wells 15 minutes prior to addition of bacterial LPS ([…]). The mixture was allowed to incubate for 20 hours at 37° C. in a humidified chamber. The cells then were separated by centrifuging at 800 rpm for 5 minutes at room temperature. An aliquot of 180 μL of supernatant was transferred to a new plate for determination of TNFα concentration. TNFα protein in the cell supernatant fluids was measured using a commercially available enzyme-linked immunosorbent assay (ELISA) (CYTOSCREEN® Immunoassay Kit from Biosource International).\nThe cell-based assay provided the following results for various pyrrolidine compounds of the present invention. The EC50 values (i.e., effective concentration of the compound capable of inhibiting 50% of the total TNFα) illustrate the ability of the present compounds to inhibit LPS-stimulated TNFα release from human PBL."}, "recombinant human PDE4 [2]": {"system": "T1, recombinant human PDE4", "T1 construct": "PDE4 IC50; other: human recombinant PDE4", "test": "PDE4 inhibition, recombinant human PDE4 (charcoal separation PDE assay)", "format": "biochemical", "method": "The compounds of structural formula (II) were tested for an ability to inhibit PDE4. The ability of a compound to inhibit PDE4 activity is related to the IC50 value for the compound, i.e., the concentration of inhibitor required for 50% inhibition of enzyme activity. The IC50 value for compounds of structural formula (II) were determined using recombinant human PDE4.\nPhosphodiesterase activity of the preparations was determined as follows. PDE assays utilizing a charcoal separation technique were performed essentially as described in Loughney et al. (1996). In this assay, PDE activity converts [32P]cAMP or [32P]cGMP to the corresponding [32P]5′-AMP or [32P]5′-GMP in proportion to the amount of PDE activity present. The [32P]5′-AMP or [32P]5′-GMP then was quantitatively converted to free [32P]phosphate and unlabeled adenosine or guanosine by the action of snake venom 5′-nucleotidase. […] The assay was performed at 30° C. in a 100 μL reaction mixture containing (final concentrations) 40 mM Tris HCl (pH 8.0), 1 μM ZnSO4, 5 mM MgCl2, and 0.1 mg/mL bovine serum albumin (BSA). Alternatively, in assays assessing PDEl-specific activity, incubation mixtures further incorporated the use of 0.1 mM CaCl2 and 10 μg/mL calmodulin. PDE enzyme was present in quantities that yield <30% total hydrolysis of substrate (linear assay conditions). The assay was initiated by addition of substrate ([…] [32P]cAMP or cGMP), and the mixture was incubated for 12 minutes. Seventy-five (75) μg of Crotalus atrox venom then was added, and the incubation was continued for 3 minutes (15 minutes total). The reaction was stopped by addition of 200 μL of activated charcoal (25 mg/mL suspension in 0.1 M NaH2PO4, pH 4). After centrifugation (750×g for 3 minutes) to sediment the charcoal, a sample of the supernatant was taken for radioactivity determination in a scintillation counter and the PDE activity was calculated.\nThe table below illustrates the ability of compounds of formula (II) to inhibit PDE4 activity and TNFα release in vitro. In the following table, the IC50 values were determined against human recombinant PDE4."}, "female Balb/c mice": {"system": "female Balb/c mice", "test": "Combined mouse endotoxin-stimulated TNFα release and locomotor activity assay (spontaneous mobility)", "format": "in vivo", "settings": "i.p., 50 mg/kg dose, locomotor activity", "method": "(§1) The purpose of this study was to determine the efficacy of PDE4 inhibitors in vivo in an LPS mouse model together with a determination with respect to central nervous system (CNS) side-effects manifested by a decrease in spontaneous mobility.\n(§2) The test animals were female Balb/c mice, having an average weight of about 20 g. The PDE4 inhibitors, formulated in 30% Cremophor® EL, were administered via intraperitoneal (i.p.) injections at doses of 0.1, 1.0, 10.0, and 100 mg/kg. Individual dose volumes (about 150 μL) were adjusted based on the body weights measured. One hour later, 5 mg/kg LPS in a final volume of 200 μL was injected via the tail vein to each animal. Ninety minutes following the LPS treatment, the animals were bled and serum samples were collected before being stored at −70° C. until assayed.\n(§3) Movement of the X-Y plane, or rearina up on the hind legs, was quantified by counting the number of “light-beam” crosses per unit of time. A decrease in the number of activity events is directly proportional to the mobility or immobilization of the animal. The quantitative scoring correlated well with the subjective measurements described above.\n(§4) The following table summarizes the locomotor activity assay (mobility, % activity) results obtained by the above-described method:\n(§5) effective dose, in mg/kg, that decreases spontaneous mobility 50% of control."}, "[3]": {"test": "Combined mouse endotoxin-stimulated TNFα release and locomotor activity assay (spontaneous mobility)", "format": "in vivo", "settings": "female, Balb/c, in vivo, ip, locomotor activity, read-out: ED50 (effective dose that decreases spontaneous mobility 50% of control)", "method": "as §1, §2, §3, §4, §5"}, "[4]": {"settings": "in vivo; cited from earlier work"}, "recombinant human PDE4 [5]": {"system": "recombinant human PDE4", "settings": "prior art value; read-out: IC50 with respect to inhibiting recombinant human PDE4 (reported); cited from earlier work"}}, "note": "Where two headings read alike, the source gives them in different places."}
{"smiles": "COC(=O)N1CC(c2ccc(OC)c(OC3Cc4ccccc4C3)c2)[C@](C)(/C(C)=N\\O)C1", "note": "(mixture of isomers) [Example 3]", "values": [{"measurement": "EC50", "setting": "[1]; Homo sapiens, Lymphocyte", "value": 551, "unit": "nM"}, {"measurement": "IC50", "setting": "recombinant human PDE4 [2]", "value": 189, "unit": "nM"}]}
{"smiles": "CN/N=C(\\C)C1(C)CN(C(=O)OC)CC1c1ccc(OC)c(OC2CCCC2)c1", "note": "(single isomer, unassigned) [Example 1a]", "values": [{"measurement": "EC50", "setting": "[1]", "value": 76, "unit": "nM"}, {"measurement": "IC50", "setting": "recombinant human PDE4 [2]", "value": 116, "unit": "nM"}, {"measurement": "Mobility (% activity at 50 mg/kg dose)", "setting": "female Balb/c mice", "value": 64, "unit": "% activity"}]}
{"smiles": "CN/N=C(\\C)C1(C)CN(C(=O)OC)CC1c1ccc(OC)c(OC2CCCC2)c1", "note": "(single isomer, unassigned) [Example 1b]", "values": [{"measurement": "EC50", "setting": "[1]", "value": 2.2, "unit": "nM"}, {"measurement": "IC50", "setting": "recombinant human PDE4 [2]", "value": 2.2, "unit": "nM"}, {"measurement": "Mobility (% activity at 50 mg/kg dose)", "setting": "female Balb/c mice", "value": 6, "unit": "% activity"}]}
{"smiles": "COC(=O)N1CC(c2ccc(OC)c(OC3CCCC3)c2)[C@](C)(/C(C)=N\\O)C1", "note": "(some centres unmarked) [Example 2a]", "values": [{"measurement": "EC50", "setting": "[1]; Homo sapiens, Lymphocyte", "value": 281, "unit": "nM"}, {"measurement": "IC50", "setting": "recombinant human PDE4 [2]", "value": 49, "unit": "nM"}, {"measurement": "ED50", "setting": "[3]", "value": "> 50", "unit": "mg/kg"}]}
{"smiles": "COC(=O)N1CC(c2ccc(OC)c(OC3CCCC3)c2)[C@@](C)(/C(C)=N\\O)C1", "note": "(some centres unmarked) [Example 2b]", "values": [{"measurement": "EC50", "setting": "[1]; Homo sapiens, Lymphocyte", "value": 23, "unit": "nM"}, {"measurement": "IC50", "setting": "recombinant human PDE4 [2]", "value": 2.2, "unit": "nM"}, {"measurement": "ED50", "setting": "[3]", "value": 7, "unit": "mg/kg"}]}
{"smiles": "COc1ccc([C@@H]2CNC(=O)C2)cc1OC1CCCC1", "note": "[R-rolipram]", "values": [{"measurement": "Emetic potency relative to the (+)-enantiomer", "setting": "[4]", "value": "about ten-fold more emetic"}]}
{"smiles": "COc1ccc(C2CNC(=O)C2)cc1OC1CCCC1", "note": "(centres unmarked) [Rolipram]", "values": [{"measurement": "IC50", "setting": "recombinant human PDE4 [5]", "value": "~200", "unit": "nM"}]}
{"smiles": "COC(=O)N1CC(c2ccc(OC)c(OC3CCCC3)c2)C(C)(C(C)=O)C1", "note": "(centres unmarked) [formula (I)]", "values": [{"measurement": "IC50", "setting": "recombinant human PDE4 [5]", "value": "~2", "unit": "nM"}]}
